Source: the NIST ThermoML archive (doi:10.1016/j.jct.2009.04.002)
“And” between values parts separate entries of the source, which are not always exact repeats. Identical values can stand only once.

Settings: Liquid

CC(C)CCCCCCCOC(=O)c1ccccc1C(=O)OCCCCCCCC(C)C
Settings	mass density, Vibrating tube method	viscosity, Falling or rolling sphere viscometry
303.15 K, 60000 kPa	–	251 mPa·s and 250 mPa·s
313.15 K, 100 kPa	–	38 mPa·s and 38.5 mPa·s
313.15 K, 1000 kPa	–	38.7 mPa·s and 39.3 mPa·s
313.15 K, 5000 kPa	–	42.2 mPa·s and 42.8 mPa·s
313.15 K, 10000 kPa	–	46.9 mPa·s and 47.6 mPa·s
313.15 K, 20000 kPa	–	57.8 mPa·s and 58.8 mPa·s
313.15 K, 30000 kPa	–	71.1 mPa·s and 72.4 mPa·s
313.15 K, 40000 kPa	–	87.2 mPa·s and 88.8 mPa·s
313.15 K, 50000 kPa	–	107 mPa·s and 109 mPa·s
313.15 K, 60000 kPa	–	130 mPa·s and 132 mPa·s
323.15 K, 100 kPa	945.4 kg/m3 and 945.7 kg/m3 and 945.2 kg/m3	–
323.15 K, 1000 kPa	945.8 kg/m3 and 946.3 kg/m3	–
323.15 K, 5000 kPa	948.4 kg/m3 and 948.8 kg/m3 and 948.3 kg/m3	–
323.15 K, 10000 kPa	951.5 kg/m3 and 951.9 kg/m3 and 951.4 kg/m3	–
323.15 K, 20000 kPa	957.4 kg/m3 and 957.9 kg/m3	–
323.15 K, 30000 kPa	962.9 kg/m3 and 963.3 kg/m3 and 962.8 kg/m3	–
323.15 K, 40000 kPa	968.1 kg/m3 and 968.5 kg/m3 and 968 kg/m3	–
323.15 K, 50000 kPa	973.1 kg/m3 and 973.4 kg/m3 and 973 kg/m3	–
323.15 K, 60000 kPa	977.8 kg/m3 and 978.1 kg/m3 and 977.7 kg/m3	–
323.15 K, 70000 kPa	982.3 kg/m3 and 982.6 kg/m3 and 982.2 kg/m3	–
333.15 K, 100 kPa	938.4 kg/m3 and 938.7 kg/m3 and 938.2 kg/m3	16.1 mPa·s and 15.5 mPa·s and 16 mPa·s
333.15 K, 1000 kPa	938.9 kg/m3 and 939.3 kg/m3 and 938.8 kg/m3	16.4 mPa·s and 15.7 mPa·s and 16.3 mPa·s
333.15 K, 5000 kPa	941.6 kg/m3 and 942 kg/m3 and 941.5 kg/m3	17.7 mPa·s and 17 mPa·s and 17.6 mPa·s
333.15 K, 10000 kPa	–	19.5 mPa·s and 18.6 mPa·s and 19.3 mPa·s

Settings	mass density, SVM3000 rotational viscometer	viscosity, Rotational Automated Viscometer
303.15 K	959.7 kg/m3 and 959.8 kg/m3 and 959.4 kg/m3	64.31 mPa·s and 65.45 mPa·s and 65.32 mPa·s
308.15 K	956.2 kg/m3 and 956.3 kg/m3 and 955.9 kg/m3	48.46 mPa·s and 49.29 mPa·s and 49.16 mPa·s
313.15 K	952.7 kg/m3 and 952.8 kg/m3 and 952.4 kg/m3	37.35 mPa·s and 37.97 mPa·s and 37.87 mPa·s
318.15 K	949.2 kg/m3 and 949.3 kg/m3 and 948.9 kg/m3	29.38 mPa·s and 29.83 mPa·s and 29.75 mPa·s
323.15 K	945.7 kg/m3 and 945.8 kg/m3 and 945.3 kg/m3	23.51 mPa·s and 23.87 mPa·s and 23.79 mPa·s
328.15 K	942.2 kg/m3 and 941.8 kg/m3	19.13 mPa·s and 19.41 mPa·s and 19.35 mPa·s
